Laboratory results published in publication PMC8026479 (Cancer Chemotherapy and Pharmacology, 2021).

What was measured:
[1] = test system: murine HSCs / total bone marrow cycling cells; parameters: method as in PMID 28446688; settings: mouse, at concentrations giving maximum decrease in total bone marrow cycling cells; cited from earlier work
[2] = test system: transition rate constant from G1 to cycling for HSPCs; experiment: Semi-mechanistic multi-compartment PK/PD model of hematopoiesis; parameters: species or system mouse, rat, and dog
Source text: (§1) Owing to the invasive nature of the PD marker collection (i.e. bone marrow aspiration), a semi-mechanistic PK/PD model based on animal PK/PD data and human PK data was developed to guide the selection of an optimal dose level for bone marrow aspiration in humans during dose escalation in the Phase I first-in-human study. The model was constructed using PK data from four species (mouse, rat, dog, and human) and PD data from three species (mouse, rat, and dog; Online Resources 1 and 2).
The PK/multi-compartment PD model was based on a myelosuppression model previously published by Friberg et al., with modifications. […] In the model used in the current study, stem cells and progenitor cells were separated into two compartments, with experimental data measured for each compartment. […] Another important deviation from the Friberg model was the mechanism postulated for the homeostasis of the […] (PMNs). We postulated that the feedback mechanism has a set point target and that deviations from that target would accelerate (in the case of too few PMNs) or decelerate (in the case of too many PMNs) the transition of G1-phase cells to S-phase cells in the stem cell population.
The model was constructed in two stages. First, preclinical PK data (e.g. doses, routes, and schedule of administration, observed concentrations) were compiled and modeled by allometric scaling. A sequential PK/PD modeling approach (population PK parameters and data approach) was then employed in which a semi-mechanistic PD model with various physiological compartments was created, and specific assumptions entered (Online Resource 3). Traditional forward addition/backward elimination was used for PK modeling. […] Many parameters in this complex model could not be estimated and were fixed either to the literature values or values selected on the basis of discussions with domain experts and sensitivity analysis. In preclinical animal models, the PD analysis modeled bone marrow cells positive for 5′-ethynyl-2′-deoxyuridine (EdU) and peripheral neutrophil counts simultaneously. […]

[3] = human, in vivo; cited from earlier work
[4] = Population PK model with allometric scaling of preclinical and human PK data; parameters: species or system mouse, rat, dog; settings: estimated
Source text: as §1
The model was constructed in two stages. First, preclinical PK data (e.g. doses, routes, and schedule of administration, observed concentrations) were compiled and modeled by allometric scaling. A sequential PK/PD modeling approach (population PK parameters and data approach) was then employed in which a semi-mechanistic PD model with various physiological compartments was created, and specific assumptions entered (Online Resource 3). Traditional forward addition/backward elimination was used for PK modeling. […] Many parameters in this complex model could not be estimated and were fixed either to the literature values or values selected on the basis of discussions with domain experts and sensitivity analysis. In preclinical animal models, the PD analysis modeled bone marrow cells positive for 5′-ethynyl-2′-deoxyuridine (EdU) and peripheral neutrophil counts simultaneously. Although the preclinical animal models could determine the G1 phase, they could not differentiate S, G2, and M phases; cells in these phases will be referred to as “cycling” throughout this manuscript.
Online Resource 1 List of studies used in PK and PD models
Data set Species Administration route Endpoint
BM bone marrow, EdU 5’-ethynyl-2’-deoxyuridine, IP intraperitoneal, IV intravenous, PD pharmacodynamics , PK
pharmacokinetics , PMN polymorphonuclear cell
Online Resource 2 Brief description of animal studies used in PK and PD models
Preclinical pharmacokinetic (PK)/toxicokinetic studies were conducted in mice, rats, and dogs. Data from eight
studies in four species, with a total of 1628 observations from 191 individuals, were used for PK/pharmacodynamic
(PD) modeling. Administration routes included oral, intravenous (IV), and intraperitoneal (IP). The designs of these
studies are described briefly below:
samples were collected from pre dose up to 48 h post dose. In rat toxicology studies, rats received 7-day
PK samples were collected
from pre dose up to 24 h post dose on Day 1 and Day 7.
samples were collected from pre dose up to 30 h post dose.
IV infusion. […]
Online Resource 3 PK/PD model parameters and assumptions
PK model parameters for trilacicliba
Ka (/h) 20.0 (FIXED) Assumptionb
Bioavailability (oral, mouse) 0.62 Estimated
Intercompartment rate constant 15.94 Estimated
Intercompartment clearance K42 0.29 Estimated
Allometric exponent for V 1.00 Estimated
Allometric exponent for CL 1.00 (FIXED) Assumptionc
Additive error 2.00 (FIXED) Assumptiond
Proportional error 0.32 Estimated
PD model parameters for trilaciclib and
Rate constant for BM precursor G 0.04 (FIXED) Assumption e
Rate constant for neutrophils 3.24*E-2 (FIXED) Assumption f
Max effect of G1T28 in the E max 1.00 (FIXED) Assumption g
Concentration of G1T28 with 5.90 Estimated
Feedback slope (/h) 1.00*E-6 (FIXED) Assumptionh
Scale for neutrophils in mice 150 Estimated
Scale for neutrophils in dogs 848 Estimated
EC50 as fraction of baseline value 2.00 Estimated
of persistence effect . Effect is on
transition of S phase cells to G1
Rate constant for stem cell G to 0.51 Estimated
Residual error variance 0.73 Estimated
aPK model parameters for 5 -FU were obtained from the literature
K a could not be estimated and
cThe allometric exponent for CL was estimated to be 0.945 from an earlier model during the model development
process and was fixed to 1 .00 for the purpose of model simplification to avoid overparameterization
dThe additive error was fixed to 20% of the assay LLOQ (10 ng/mL) to decrease the number of parameters to fit […]

[5] = test system: total bone marrow cycling cells; parameters: method as in doi:10.1200/jco.2015.33.15_suppl.2529; settings: dogs; cited from earlier work

## CN1CCN(c2ccc(Nc3ncc4cc5n(c4n3)C3(CCCCC3)CNC5=O)nc2)CC1 [trilaciclib]
[1]
  HSPCs arrested in the G1 phase: ~100%
[2]; plasma concentration, Emax effect on G1-to-cycling transition of HSPCs, model estimate
  EC50, final PD model (concentration of G1T28 with 50% max effect): 5.9 ng/mL
[2]; predicted from model EC50
  EC90 (therapeutically active): approximately 50 ng/mL
[3]
  most commonly reported AEs: headache and nausea
  severe AEs: No severe AEs were reported
  time to spontaneous resolution of all moderate AEs: ≤ 24 h
[4]; 150 mg/kg, oral, mouse
  bioavailability: 62%
[4]
  Intercompartment clearance K24: 2.03 h⁻¹
  Intercompartment clearance K32: 4.42 h⁻¹
  Intercompartment clearance K42: 0.29 h⁻¹
  Intercompartment rate constant K23: 15.94 h⁻¹
[4]; mouse, rat, dog, human, three-compartment model, allometric scaling, read-out: CL, PK model (converted)
  clearance: 46.2 mL/min/kg
[4]; mouse, rat, dog, human, three-compartment model, allometric scaling, read-out: V (central volume of distribution), PK model
  Vd: 1.32 L/kg
[5]
  maximum decrease from baseline in total bone marrow cycling cells: ~ 50%
